Test results reported in patent publication US20180133221A1, “ADMINISTRATION OF UBIQUITIN-ACTIVATING ENZYME INHIBITOR AND CHEMOTHERAPEUTIC AGENTS” (Millennium Pharmaceuticals, Inc., priority 2014, published 2018).
Like-named read-outs stand apart in the source and are kept apart here.

Legend:
[1] = test system: PHTX-17C colorectal carcinoma xenograft; format: in vivo; conditions: for Tumor Volume Day 21: in mm³ (unit assumed)
Text: The PHTX-17C colorectal carcinoma xenograft model was established from a patient-derived tumor collected during surgery from a person with moderately differentiated adenocarcinoma.PHTX-17C tumor fragments (approximately 2×2×3 mm^3) were implanted into the subcutaneous space in the right dorsal flank of female nude mice (age 5-7 weeks, Balb/c Nude Mice, Shanghai SINO-British SIPPR/BK Lab Animal Ltd, Shanghai, China) using a 13-gauge trocar. When the mean tumor volume reached approximately 185 mm^3, the animals were randomized into 12 treatment groups (n=5/group).
(§1) Oxaliplatin (Jiang Su Geng Rui Pharmaceuticals, Inc.) is formulated in 0.9% saline and administered by IP injection once weekly (QW) at 7.5 or 12.5 mg/kg. The once weekly schedule is also described as every 7 days (Q7D).
(§2) Compound 1 [((1R,2R,3S,4R)-2,3-dihydroxy-4-(2-(3-(trifluoromethylthio)-phenyl)pyrazolo[1,5-a]pyrimidin-7-ylamino)cyclopentyl)methyl sulfamate] is formulated in 10-20% HPbCD in sterile water and administered intravenously (IV) or subcutaneously (SC) on a BIW (twice/week schedule; Monday and Thursday or Tuesday and Friday) for either 2-4 weeks.
(§3) Tumors were measured twice weekly using vernier calipers. Tumor volumes were calculated using the standard formula V=W^2×L/2,). When mean tumor volumes reached approximately 200 mm^3 for PHTX-24C, 220 mm^3 for PHTX-Lu132, 150 mm^3 for CTG-0256, 260 mm^3 for CTG-0486, 185 mm^3 for PHTX-17C, 260 mm^3 for CTG-0165, 150 mm^3 for PHTX-14B in the study of Compound 1 and paclitaxel, 180 mm^3 for PHTX-14B in the study of Compound 1 and docetaxel, 200 mm^3 for SKOV-3, 220 mm^3 for PHTX-02B in the study of Compound 1 and docetaxel, 250 mm^3 for PHTX-02B in the study of Compound 1 and paclitaxel, 195 mm^3 for CTG-0159, 180 mm^3 for CTG-0012 or 150 mm^3 for Calu-6, mice were randomized into groups of n=5-7/arm as described in the tables below, and injected with vehicle, Compound 1 or agents (docetaxel, paclitaxel, oxaliplatin, cisplatin or carboplatin), or the combination of Compound 1 plus one of the agents, at various doses and schedules as described in tables below. Tumor size and body weight were measured approximately twice a week for the duration of the study. Mice are euthanized when their tumor volume reached 10% of their body weight, or when the average tumor volume of a treatment or control group reached approximately 2000 mm^3. Tumor growth continued to be monitored after the dosing period in some studies. Average tumor volume is reported as a function of time for selected arms of selected studies in the Figures.
(§4) Measurements from day 0 to day 14, day 19, day 21, or day 28 are analyzed as specified in Tables below. All tumor volumes have a value of 1 added to them before log10 transformation. For each animal, the log tumor volume at day 0 is subtracted from the log tumor volume on the subsequent days. This difference vs. time is used to calculate an area under the curve (AUC) for each animal using the trapezoid rule. […] The synergy score for the combination of agents A and B is defined as
(§5) 100*(mean(AUCAB)−mean(AUCA)−mean(AUCB)+mean(AUCctl))/mean(AUCctl):
where AUCAB, AUCA, AUCB, and AUCctl are the AUC values for animals in the combination group, the A group, the B group, and the control group, respectively. The standard error of the synergy score is computed based on the variation in the AUC values among the animals. […] If the P-value is above 0.05, then the combination is considered to be additive. If the P-value is below 0.05, and the synergy score is less than zero, then the combination is considered to be synergistic.

[2] = test system: PHTX-14B breast xenograft; assay: PHTX-14B xenograft model, Compound 1 and paclitaxel; format: in vivo, Balb/c Nude Mice; conditions: for Tumor Volume Day 28: in mm³ (unit assumed)
Protocol: Paclitaxel (Bristol-Myers Squibb Company) is formulated in 0.9% saline and administered by intravenous injection (IV) on every 4 days (Q4D) or once weekly (QW) at 10 and 20 mg/kg. […] Tumors were measured twice weekly using vernier calipers.

PHTX-24C colon xenograft = assay: PHTX-24C xenograft model, Compound 1 and oxaliplatin; format: in vivo, CB-17 SCID mice
Protocol: as §1, §2, §3, §4, §5
where AUCAB, AUCA, AUCB, and AUCctl are the AUC values for animals in the combination group, the A group, the B group, and the control group, respectively. […]

NS(=O)(=O)OC[C@H]1C[C@@H](Nc2ccnc3cc(-c4cccc(SC(F)(F)F)c4)nn23)[C@H](O)[C@@H]1O [Compound 1, ((1R,2R,3S,4R)-2,3-dihydroxy-4-(2-(3-(trifluoromethylthio)phenyl)pyrazolo[1,5-a]pyrimidin-7-ylamino)cyclopentyl)methyl sulfamate]
Tumor Volume Day 21 ([1]; 20 mg/kg Compound 1 BIWx3 IV): 1875.6 | Tumor Volume Day 21 ([1]; 25 mg/kg Compound 1 BIWx3 IV): 2159.3 | Tumor Volume Day 21 ([1]; 30 mg/kg Compound 1 BIWx3 IV): 1612.7 | anti-tumor activity compared to vehicle control ([1]; single agent Compound 1 IV at 20, 25, 30 mg/kg BIW): modest anti-tumor activity | Tumor Volume Day 28 ([2]; 10 mg/kg Compound 1 BIWx4 SC): 690.0 | Tumor Volume Day 28 ([2]; 20 mg/kg Compound 1 BIWx4 SC): 480.6 | Tumor Volume Day 28 ([2]; 30 mg/kg Compound 1 BIWx4 SC): 165.1 | anti-tumor activity ([2]; single agent Compound 1 SC at 30 mg/kg BIW for 4 weeks): strong anti-tumor activity | anti-tumor activity compared to vehicle control ([2]; single agent Compound 1 SC at 10, and 20 mg/kg BIW for 4 weeks): modest anti-tumor activity | Tumor Volume Day 21 (PHTX-24C colon xenograft; 10 mg/kg Compound 1 BIWx3 IV, in mm³ (unit assumed)): 609.3 | anti-tumor activity compared to vehicle control (PHTX-24C colon xenograft; single agent Compound 1 IV at 10 mk/kg BIW): modest anti-tumor activity
